Patent publication US20120152149A1, “USE OF 1,3-DIOLS AS BIOCIDES” (BASF SE, priority 2009, published 2012)

What was measured:
Type in all cases: cell-based
A. niger ATCC 6275 = assay: Suspension test EN 1275, fungicidal activity against molds; conditions: 1% active substance in the test
E. coli ATCC 10536 = assay: Preservation stress test, example formulation 1 (standard emulsion O/W); conditions: 1% active substance
How it was run: (§1)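 O/W emulsion containing 1% diol (water as placebo), inoculated individually or as mixed culture at 10^5-10^6 CFU/g and held 28 d at 20-25° C. Surviving counts at 0, 2, 7, 14 and 28 d after dilution in neutralising phosphate buffer pH 7.4 with Tween 80/lecithin; expressed as log reduction from initial count.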

P. aeruginosa ATCC 15442 = assay: as above; conditions: 1% active substance
How it was run: as §1

S. aureus ATCC 6538 = assay: as above; conditions: 1% active substance
How it was run: as §1

C. albicans ATCC 10231 = assay: Suspension test EN 1275, activity against yeasts; conditions: 1000 ppm of active substance
Protocol: The fungicidal activity was determined in accordance with European standard EN 1275 and compared with the activities of customary commercial products, with only slight modifications having been carried out. The substances of the formula (1) were dissolved in water or ethanol to give a 1% strength stock solution. To determine the microbicidal activities of the diols against yeasts, the test mixtures were selected such that 1000 ppm of active substance was present in an aqueous solution. For the results shown in table 2, the test mixtures were inoculated with the following yeast and mold strains such that the stated germ densities were present in the test mixtures. C. albicans ATCC 10231 1−2×10^6 CFU/ml The test mixtures were incubated at room temperature (22° C.+/−2° C.). After defined contact times, aliquots of 1 ml were taken in order to determine the surviving germ count. For the deactivation of the microbicidal activity of the diols, the aliquots were diluted in 1:10 dilution steps in a solution of Sabouraud medium with 10% Tween, 3% lecithin, 0.1% histidines and 0.5% sodium thiosulfate and the 10^−2, 10^−3 and 10^−4 dilution stages were used for determining the surviving germ count. For this, corresponding aliquots were plated out on Sabouraud medium with inhibitor and incubated at 30° C. for 2 d. The ascertained surviving germ counts were in each case compared with a mixture containing water (water control) by determining the logarithmic reduction in the surviving germ counts based on the water control.

SMILES	Microbicidal activity given as logarithmic reduction in germ count (A. niger ATCC 6275; contact time 24 h) [log. red.]	Microbicidal activity given as logarithmic reduction in germ count (A. niger ATCC 6275; contact time 7 d) [log. red.]	Microbicidal activity given as logarithmic reduction in germ count (E. coli ATCC 10536; 48 h) [log. Red.]	Microbicidal activity given as logarithmic reduction in germ count (E. coli ATCC 10536; 7 d) [log. Red.]	Microbicidal activity given as logarithmic reduction in germ count (E. coli ATCC 10536; 14 d) [log. Red.]	Microbicidal activity given as logarithmic reduction in germ count (P. aeruginosa ATCC 15442; 48 h) [log. Red.]	Microbicidal activity given as logarithmic reduction in germ count (P. aeruginosa ATCC 15442; 7 d)	Microbicidal activity given as logarithmic reduction in germ count (P. aeruginosa ATCC 15442; 14 d)	Microbicidal activity given as logarithmic reduction in germ count (S. aureus ATCC 6538; 48 h) [log. Red.]	Microbicidal activity given as logarithmic reduction in germ count (S. aureus ATCC 6538; 7 d) [log. Red.]	Microbicidal activity given as logarithmic reduction in germ count (S. aureus ATCC 6538; 14 d) [log. Red.]	Microbicidal activity given as logarithmic reduction in germ count (C. albicans ATCC 10231; contact time 5 min) [log. red.]	Microbicidal activity given as logarithmic reduction in germ count (C. albicans ATCC 10231; contact time 30 min) [log. red.]	Microbicidal activity given as logarithmic reduction in germ count (C. albicans ATCC 10231; contact time 24 h) [log. red.]
CCCC(O)CO (stereo not drawn) [1,2-Pentanediol, 1,2-pentanediol, reference compound]	<1	<1	0	0	0	0	≧3 log. Red.	≧3 log. Red.	0	0	0			
CCCCCC(CO)(CO)CCC [PPPD, 2-pentyl-2-propylpropane-1,3-diol]	2.9	>4										1.7	>5	>5
CCCCCCCCC(C)(CO)CO [OMPD, 2-octyl-2-methylpropane-1,3-diol]	<1	2.6										>4	>4	>4
